Columns and labels:
[1] = test system: A431; test: Dose-dependent change in panel protein levels by western blot; assay type: cell-based, human; settings: for BAG4 protein level change / CAD17 protein level change / CBFB protein level change / Claudin 1 protein level change / ELAVL-1 protein level change / EpCAM protein level change / HSPG2 protein level change / PDCD4 protein level change / PRDX6 protein level change / QARS protein level change / S100A9 protein level change / SERPINE1 protein level change / SNX5 protein level change / TESTICAN2 protein level change / TNFAIP2 protein level change / TROP-2 protein level change: dose-dependent, 16 h, western blot; for changes in levels of the 16 validated proteins (immunoblots): erlotinib 100-1,000 nM, paclitaxel 10-100 nM; on BAG4 protein level change: key: (+) for increase; (−) for decrease; N.C.: (N.C) for no change; (~) for not detected; on CAD17 protein level change: key: (+) for increase; (−) for decrease; N.C.: (N.C) for no change; (~) for not detected; on CBFB protein level change: key: (+) for increase; (−) for decrease; N.C.: (N.C) for no change; (~) for not detected; on Claudin 1 protein level change: key: (+) for increase; (−) for decrease; N.C.: (N.C) for no change; (~) for not detected
Description: Lysates were sonicated for 10 minutes, heated at 95° C. for 10 minutes, and centrifuged for 15 minutes at 20,000×g. The supernatant was cleared through a 0.22-micron filter and protein concentration was determined (BCA, BioRad, Hercules, Calif.). Lysates were subject to SDS-PAGE and subsequent immunoblot. For in vivo experiments, mouse tumor pieces from 5 mice were pooled and suspended in RAF buffer and homogenized with a high-speed blender. The homogenate was centrifuged for 5 min at 200×g. The supernatant was sonicated on ice for 2 minutes and centrifuged for 1 hr at 12,000×g. The supernatant (soluble fraction) was cleared through a 0.22-micron filter and processed as above. The pellet (insoluble fraction) was resuspended in RAF buffer with 2% SDS and DTT, heated at 95° C. and sonicated prior to processing.

[2] = test system: NSCLC patients; test: PRDX6 levels in circulation of NSCLC patients before and after Tarceva; assay type: in vivo, human
Description: To validate if this temporal profile is replicated in a clinical setting, the plasma and/or sera from human NSCLC patients was studied before and after Tarceva® (erlotinib) treatment. […] Serum samples from MRN #48 (FIG. 10A) were taken before and after treatment with Tarceva®. […] Plasma samples were obtained before treatment, and at 2 weeks and 4 weeks post initiation of treatment.

[3] = test system: NSCLC cells; test: Biomarker profiles / PRDX6 shedding of treated NSCLC (Example 3); assay type: cell-based
[4] = test system: A431 cells; settings: previously shown; read-out: IC50 of paclitaxel in A431 cells; cited from earlier work
[5] = patient MRN 9, Pre-Tarceva 1.07 +/− 0.03
[6] = patient MRN 48, Pre-Tarceva 0.27 +/− 0.01
[7] = patient MRN 91, Pre-Tarceva 0.65 +/− 0.09

SMILES | BAG4 protein level change [1] | CAD17 protein level change [1] | CBFB protein level change [1] | Claudin 1 protein level change [1] | ELAVL-1 protein level change [1] | EpCAM protein level change [1] | HSPG2 protein level change [1] | PDCD4 protein level change [1] | PRDX6 protein level change [1] | QARS protein level change [1] | S100A9 protein level change [1] | SERPINE1 protein level change [1] | SNX5 protein level change [1] | TESTICAN2 protein level change [1] | TNFAIP2 protein level change [1] | TROP-2 protein level change [1] | changes in levels of the 16 validated proteins (immunoblots) [1] | other results
C#Cc1cccc(Nc2ncnc3cc(OCCOC)c(OCCOC)cc23)c1 [erlotinib] | + | + | + | + | + | + | + | + | + | + | + | + | − | + | + | + | mirrored the effect of gefitinib | circulating PRDX6 profile in patients with positive response ([2]; at least three patients, pilot data): initial rise in circulating PRDX6 (2-4 weeks post-therapy) followed by a decline in PRDX6 levels by 8 weeks post-therapy; PRDX6 level in circulation, Post-Tarceva (2 wks.) [2, 5]: 1.63 +/− 0.05 ng PRDX6/Total Protein in circulation; PRDX6 level in circulation, Post-Tarceva (3.5 to 4 wks.) [2, 5]: 0.33 +/− 0.11 ng PRDX6/Total Protein in circulation; PRDX6 level in circulation, Post-Tarceva (6.5-8 wks.) [2, 5]: 0.45 +/− 0.05 ng PRDX6/Total Protein in circulation; PRDX6 level in circulation, Post-Tarceva (2 wks.) [2, 6]: 0.76 +/− 0.08 ng PRDX6/Total Protein in circulation; PRDX6 level in circulation, Post-Tarceva (3.5 to 4 wks.) [2, 6]: 0.42 +/− 0.02 ng PRDX6/Total Protein in circulation; PRDX6 level in circulation, Post-Tarceva (3.5 to 4 wks.) [2, 7]: 5.0 +/− 0.3 ng PRDX6/Total Protein in circulation; PRDX6 level in circulation, Post-Tarceva (6.5-8 wks.) [2, 7]: 0.46 +/− 0.18 ng PRDX6/Total Protein in circulation; biomarker profiles by treated NSCLC cells ([3]; compared with Iressa treated cells, data not shown): the same as Iressa
CC(=O)O[C@H]1C(=O)[C@@]2(C)[C@H]([C@H](OC(=O)c3ccccc3)[C@]3(O)C[C@H](OC(=O)[C@H](O)[C@@H](NC(=O)c4ccccc4)c4ccccc4)C(C)=C1C3(C)C)[C@]1(OC(C)=O)CO[C@@H]1C[C@@H]2O [paclitaxel] | N.C. | N.C. | N.C. | N.C. | N.C. | N.C. | N.C. | N.C. | N.C. | N.C. | N.C. | N.C. | N.C. | N.C. | N.C. | N.C. | none of the proteins tested demonstrated a change in abundance | shedding of PRDX6 ([3]; effective paclitaxel treatment on NSCLC): failed to elicit a similar shedding of PRDX6; IC50 [4]: ~10 nM

— US9588122B2, “Methods of treating cancer sensitive to anti-EGFR therapy and modifying treatment using peroxiredoxin 6 biomarker” (The Board of Trustees of the Leland Stanford Junior …, priority 2013, dated 2017)
